The test system of series [1] is breast cancer cell line ZR-75-1. The experiment in a line: Inhibition of proliferation of breast cancer cell line ZR-75-1 (CellTiter-Glo). In kind it is cell-based. The note with it: Homo sapiens, 240 h, proliferation of ZR-75-1 cells, 10 days of incubation, read-out: IC50 (KAT6A). The source says: Test Example 1: Experiment for Determining Inhibitory Effects of Compounds on Proliferation of Breast Cancer Cell Line ZR-75-1
ATP is an indicator of the metabolism of living cells. The CellTiter-Glo® Luminescent Cell Viability Assay is a homogeneous assay method for determining the number of viable cells by quantifying ATP.
• 1) ZR-75-1 (Cell Bank of Chinese Academy of Sciences, TCHul26) • 2) RPMI-1640 medium (Gibco, 11875-093) • 3) Fetal Bovine Serum, New Zealand (Gibco,10091-148) • 4) Penicillin-streptomycin (10,000 U/mL) (Gibco, 15140-122) • 5) Trypsin-EDTA (0.25%), containing phenol red (Gibco, 25200-072) • 6) DPBS (Shanghai BasalMedia, B210KJ) • 7) Corning® 96-well Clear Flat Bottom Ultra-Low Attachment Microplate (Corning, Cat. No. 3474) • 8) 330 μL 96 Holes Deep Well Plate, transparents, 96 Round Holes, V-shaped Bottom, Low Retention (Stellar Scientific, DP33VR-9-NS) • 9) Corning® 96-well solid white flat-bottom polystyrene microplate (Corning, Cat. No. 3917) • 10) CellTiter-Glo® Luminescent Cell Viability Assay (Promega, G7573) • 11) Countstar® BioMed automatic cell counter • 12) Trypan blue solution, 0.4% (Gibco, Cat. No. 15250061) • 13) 37° C. constant-temperature incubator (Thermo, FORMA STERI-CYCLE i160 LK) • 14) Biosafety cabinet (Thermo, 1379)
• 1) The formula of the complete medium for ZR-75-1 was as follows: 500 mL RPMI-1640+10% FBS+1% penicillin-streptomycin. • 2) Thirty minutes before cell plating, the complete medium, serum, trypsin, and DPBS for use in ZR-75-1 cell culture were pre-warmed in a water bath at 37° C. • 3) The ZR-75-1 cells were taken out of the incubator, and the medium was removed by pipetting. The cells were rinsed once with 5 mL of DPBS, and then the DPBS was discarded. • 4) The cells in the T75 culture flask were digested with 1-3 mL of (0.25%) trypsin-EDTA. After the trypsin was added, the culture flask was incubated in an incubator at 37° C. for 2-5 min, and dispersion was confirmed by microscopic examination. Tapping or agitating the culture flask was avoided to prevent disturbing the cells, which might cause cell clumping. • 5) 9 mL of the complete medium was added to terminate the digestion, thus forming a cell suspension, which was then mixed well by pipetting. • 6) Cell suspension counting: 20 μL of the cell suspension was pipetted and diluted with 20 µL of the 0.4% trypan blue solution (Gibco, Cat. No. 15250061). The total cell count and the percentage of cell viability were determined using the Countstar® BioMed automatic cell counter. Only cells with a cell viability of no less than 95% were used for the experiment. • 7) The concentration of the cell suspension was adjusted to 2000 cells/well, and the cell suspension was added to a 96-well cell culture plate at 80 μL/well. Treatment of Cells with Compounds • 1) Twenty-four hours after cell plating, the cell plate was taken out. • 2) Each compound was prepared with a complete medium. The stock solution was a 10 mM solution in DMSO, which was first diluted with the medium to 100 μM, then diluted to 1 μM, and finally subjected to a 5-fold serial dilution across a total of 9 concentration gradients. • 3) 20 μL of the compound diluted with the medium was added to each well of the cell culture plate, which already contained 80 μL of the medium. The final concentration started at 200 nM, followed by a 5-fold serial dilution across a total of 9 concentration gradients. Two replicate wells were set for each compound, and each plate could be used to test 3 compounds, with the DMSO content controlled within 0.5%. • 4) The culture medium was replenished once every three days with a complete medium containing the same concentration of the test compound, with 20 μL/well added each time.
After 10 days of incubation with the compound, the cell culture plate was taken out, and the CellTiter-Glo® reagent was added at 50 μL/well. […]
For orientation: In ATP-based viability assays light output follows the ATP content of the culture.

Series [2] can be described thus: Pharmacokinetics in SD (Sprague Dawley) rats. Format: in vivo. The note with it: rat, plasma, female SD rats; for half-life: read-out: T1/2 (half-life) (converted). The procedure: Test Example 3: Determination of Pharmacokinetic Data of Compounds in SD (Sprague Dawley) Rats
The pharmacokinetic characteristics of some of the compounds of the present disclosure were evaluated by a pharmacokinetic experiment in SD rats.
Female SD rats aged 6-8 weeks from Shanghai Jihui Laboratory Animal Care Co., Ltd. were selected. The test animals were fasted overnight before administration, and feeding was resumed 4 h after administration. The compounds were dissolved in 5% DMSO+5% Tween 80+90% normal saline. For a single intravenous administration, the administration dose was 1 mg/kg, and the administration volume was 2 mL/kg. For a single intragastric administration, the administration dose was 2 mg/kg, and the administration volume was 10 mL/kg. Blood was collected at 0.083 h (for intravenous administration only), 0.25 h, 0.5 h, 1 h, 2 h, 4 h, 8 h, and 24 h after administration. At each indicated time point, about 150 μL of blood sample was collected from each rat via the vein and placed into an EDTA-K2 tube. Each sample was centrifuged (2000 g, 4° C., 5 min) within 15 min after sample collection to obtain plasma, which was then stored at −70° C. until analysis. The concentration of the corresponding test compound in the SD rat plasma was determined using UPLC-MS/MS.

Like-named read-outs stand apart in the source and are kept apart here.

For orientation: IC50 means the point on the concentration scale where inhibition reaches its midpoint. The term AUC(0-inf) denotes total exposure, with the tail of the curve extrapolated. The term clearance denotes the rate of elimination divided by the concentration. In general, bioavailability refers to dose-corrected exposure relative to a reference, in per cent.

As to `COc1ccc2c(c1S(=O)(=O)Nc1noc3cc(Cn4cccn4)c(Cl)c(OC)c13)OCCC21CC1` [Compound 52, N-(6-((1H-Pyrazol-1-yl)methyl)-5-chloro-4-methoxybenzo[d]isoxazol-3-yl)-7-methoxyspiro[chromane-4,1′-cyclopropane]-8-sulfonamide], the IC50 in series [1] is not below 50 nM. In the case of `COc1cccc(OC)c1S(=O)(=O)Nc1nnc2cc(Cn3cccn3)cc(OC)n12` [Compound 58, N-(7-((1H-Pyrazol-1-yl)methyl)-5-methoxy-[1,2,4]triazolo[4,3-a]pyridin-3-yl)-2,6-dimethoxybenzenesulfonamide], the IC50 in series [1] was not below 50 nM. For the compound `COc1ccc2c(c1S(=O)(=O)Nc1noc3cc(Cn4cccn4)c(F)c(OC)c13)OCCC21CCC1` [Compound 72, N-(6-((1H-Pyrazol-1-yl)methyl)-5-fluoro-4-methoxybenzo[d]isoxazol-3-yl)-7-methoxyspiro[chromane-4,1′-cyclobutane]-8-sulfonamide], in series [1], the IC50 fell in the range of 0.5 to 2 nM. The same measure, in the same setting: for `COc1ccc2c(c1S(=O)(=O)Nc1noc3cc(Cn4cccn4)c(F)c(OC)c13)OCCC21CCCC1` [Compound 73, N-(6-((1H-Pyrazol-1-yl)methyl)-5-fluoro-4-methoxybenzo[d]isoxazol-3-yl)-7-methoxyspiro[chromane-4,1′-cyclopentane]-8-sulfonamide] the value was 0.5 to 2 nM; for `COc1ccc2c(c1S(=O)(=O)Nc1noc3cc(Cn4cccn4)cc(OC)c13)OCCC2(F)F` [Compound 102, N-(6-((1H-Pyrazol-1-yl)methyl)-4-methoxybenzo[d]isoxazol-3-yl)-4,4-difluoro-7-methoxychromane-8-sulfonamide], 0.5 to 2 nM; for `COc1cc(Cn2cccn2)cc2onc(NS(=O)(=O)c3c(F)ccc4c3OCCC4(F)F)c12` [Compound 103, N-(6-((1H-Pyrazol-1-yl)methyl)-4-methoxybenzo[d]isoxazol-3-yl)-4,4,7-trifluorochromane-8-sulfonamide], 10 to 50 nM. On to `COc1ccc2c(c1S(=O)(=O)Nc1noc3cc(Cn4cccn4)c(F)c(OC)c13)OCCC2(F)F` [Compound 104, N-(6-((1H-Pyrazol-1-yl)methyl)-5-fluoro-4-methoxybenzo[d]isoxazol-3-yl)-4,4-difluoro-7-methoxychromane-8-sulfonamide], for which, in series [2] (iv, i.v. 1 mg/kg), the AUC(0-inf) was 4200 ng·h/mL and the half-life was 2.83 h. Moreover, the clearance in series [2] (iv, i.v. 1 mg/kg, read-out: CL (clearance rate)) amounted to 3.98 mL/min/kg. Also, the Vd in series [2] (iv, i.v. 1 mg/kg, read-out: Vdss (apparent volume of distribution)) came to 0.705 L/kg. For the same compound, in series [2] (po, p.o. 2 mg/kg), the AUC(0-inf) is 6110 ng·h/mL and the half-life is 2.13 h. In series [2] (po, p.o. 2 mg/kg, read-out: F (bioavailability)), the bioavailability was determined as 72.7%. In series [1], the IC50 was less than 0.5 nM. In the case of `COc1c(F)c(Cn2cccn2)cc2onc(NS(=O)(=O)c3c(F)ccc4c3OCCC4(F)F)c12` [Compound 105, N-(6-((1H-Pyrazol-1-yl)methyl)-5-fluoro-4-methoxybenzo[d]isoxazol-3-yl)-4,4,7-trifluorochromane-8-sulfonamide], the IC50 in series [1] fell in the range of 10 to 50 nM. As to `COc1ccc2c(c1S(=O)(=O)Nc1noc3cc(Cn4cccn4)c(F)c(OC)c13)OCC=C2C` [Compound 106, N-(6-((1H-Pyrazol-1-yl)methyl)-5-fluoro-4-methoxybenzo[d]isoxazol-3-yl)-7-methoxy-4-methyl-2H-chromene-8-sulfonamide], the IC50 in series [1] was less than 0.5 nM.

For `COc1ccc2c(c1S(=O)(=O)Nc1noc3cc(Cn4cccn4)c(F)c(OC)c13)OCCC2O` (centres unmarked) [Compound 107, N-(6-((1H-Pyrazol-1-yl)methyl)-5-fluoro-4-methoxybenzo[d]isoxazol-3-yl)-4-hydroxy-7-methoxychromane-8-sulfonamide], the IC50 in series [1] lay in the range of 0.5 to 2 nM. Same read-out and setting: for `COc1c(F)c(Cn2cccn2)cc2onc(NS(=O)(=O)c3ccccc3OC3CCC3)c12` [Compound 108, N-(6-((1H-Pyrazol-1-yl)methyl)-5-fluoro-4-methoxybenzo[d]isoxazol-3-yl)-2-cyclobutoxybenzenesulfonamide] the value was 0.5 to 2 nM; for `COc1ccc2c(c1S(=O)(=O)Nc1noc3cc(Cn4cccn4)c(F)c(OC)c13)OCCN2` [Compound 111, N-(6-((1H-Pyrazol-1-yl)methyl)-5-fluoro-4-methoxybenzo[d]isoxazol-3-yl)-7-methoxy-3,4-dihydro-2H-benzo[b][1,4]oxazine-8-sulfonamide], less than 0.5 nM; for `COc1ccc2c(c1S(=O)(=O)Nc1noc3cc(Cn4cccn4)c(F)c(OC)c13)OCCN2Cc1ccccc1` [Compound 112, N-(6-((1H-Pyrazol-1-yl)methyl)-5-fluoro-4-methoxybenzo[d]isoxazol-3-yl)-4-benzyl-7-methoxy-3,4-dihydro-2H-benzo[b][1,4]oxazine-8-sulfonamide], 2 to 10 nM.

For the compound `COc1ccc2c(c1S(=O)(=O)Nc1noc3cc(Cn4cccn4)c(F)c(OC)c13)OCCN2CC(F)(F)F` [Compound 120, N-(6-((1H-Pyrazol-1-yl)methyl)-5-fluoro-4-methoxybenzo[d]isoxazol-3-yl)-7-methoxy-4-(2,2,2-trifluoroethyl)-3,4-dihydro-2/-benzo[b][1,4]oxazine-8-sulfonamide], the IC50 in series [1] lay within 2 to 10 nM.

Regarding `COc1cccc(OC)c1S(=O)(=O)Nc1noc2cc(Cn3cccn3)c(F)c(OC)c12` [PF-0128, reference compound], the half-inhibitory concentration (IC50) in series [1] lay in the range of 0.5 to 2 nM. Still for that read-out and setting: for `COc1cccc(OC)c1S(=O)(=O)Nc1noc2cc(Cn3cccn3)cc(OC)c12` [PF-9363, reference compound] the value was 0.5 to 2 nM.

Values taken from patent US20260174778A1, “SULFONAMIDE COMPOUND, AND PREPARATION METHOD THEREFOR AND USE THEREOF” (SHANGHAI HENLIUS BIOTECH, INC., priority 2023, published 2026).
